According to patent publication US8633243B2, “Forms of CDDO methyl ester” (priority 2007, dated 2014):
Marks after values point to notes of the source that are not given here.

Key:
[1] = Stress experiments (physical stability under temperature, humidity, grinding; XRPD after stress); format: physicochemical; details: for KF Result after stress: Karl Fischer water; for weight loss under stress: 3 days
Experimental: A solid sample was placed into a stainless steel milling rotor with a small metal ball. […] The sample was then ground at 30 Hz on a Retesh type MM220 mixermill for approximately 20 minutes. The resulting solids were isolated and analyzed.
A solid sample was placed into a stainless steel grinding jar with a grinding rod. The sample was then ground at 15 Hz on a SPEX Certiprep model 6750 cryomill for a set amount of time. The grinding jar was submerged in a bath of liquid nitrogen during the experiment. The solids were isolated and analyzed.
Solids were stressed under different temperature and/or relative humidity (RH) environments for a measured time period. Specific RH values were achieved by placing the samples inside sealed chambers containing saturated salt solutions or inside ESPEC temperature and humidity cabinets. The salt solutions were selected and prepared following an ASTM standard procedure. Samples were analyzed by XRPD immediately after removal from the stress environment. […]

[2] = Hygroscopicity (dynamic vapor sorption/desorption); format: physicochemical
Experimental: Moisture sorption/desorption data were collected on a VTI SGA-100 Vapor Sorption Analyzer. Sorption and desorption data were collected over a range of 5% to 95% relative humidity (RH) at 10% RH intervals under a nitrogen purge. Samples were not dried prior to analysis. Equilibrium criteria used for analysis were less than 0.010% weight change in 5 minutes, with a maximum equilibration time of 3 hours if the weight criterion was not met. Data were not corrected for the initial moisture content of the samples. Sodium chloride and polyvinypyrrolidine were used as calibration standards.

[3] = cynomolgus monkey, in vivo, po, 4.1 mg/kg
[4] = Phases 2 and 3: single oral administration of CDDO-methyl ester capsule formulations, concentrations by HPLC-MS/MS; format: in vivo, Cynomolgus monkeys, Macaca fascicularis; details: phases 2 and 3, PO capsule 10 mg/kg; compared with the micronized and nanocrystalline Form A formulations
Experimental: An aqueous suspension of nanocrystalline CDDO-Me was produced, starting from a sample of micronized Form A material. A Retsch® Planatory Ball Mill model PM 400, containing zirconia balls of 2 mm average size, was charged with 25 gm of micronized CDDO-Me (average particle size distribution of 6.1 uM), 5 gm of docusate sodium, 1 gm of Tween 80, and 68.3 gm of water. Grinding was initiated at approximately 400 RPM and was continued for 2 hours. A particle size distribution (PSD) determination using a laser light granulometer indicated an average PSD of 0.37 μM was obtained. To this thick suspension were added 1 gm of microcrystalline cellulose and 0.2 gm of […] gum, with brief mixing, and the suspension was stored refrigerated. […] The table below presents the quantitative composition of both formulations. […] The quantitative composition of each formulation appears below. […] Serial blood samples (approximately 1 mL) were removed from the femoral vein or artery of each animal and transferred into tubes containing K2-EDTA at each of the following time points (actual times were recorded): All samples were thoroughly mixed following collection and placed on wet ice, prior to being refrigerated at approximately 4° C. CDDO-methyl ester concentrations in blood were analysed by HPLC-MS/MS.

[5] = 25° C./75% RH, 28 d, micronized
[6] = 40° C./48% RH, 28 d, micronized
[7] = 60° C./23% RH, 28 d, micronized

| hygroscopicity [2] | AUC, Mean [3] [ng·h/mL] | AUC, Median [3] [ng·h/mL] | AUC, Range (min-max) [3] [ng·h/mL] | Compound | XRPD RESULT after stress [1, 5] | KF Result after stress [1, 5] [%] | XRPD RESULT after stress [1, 6] | KF Result after stress [1, 6] | XRPD RESULT after stress [1, 7] | KF Result after stress [1, 7] [%] | XRPD RESULT after stress ([1]; 80° C./P2O5, 28 d, micronized) | KF Result after stress ([1]; 80° C./P2O5, 28 d, micronized) [%] | also measured |
| --- | --- | --- | --- | --- | --- | --- | --- | --- | --- | --- | --- | --- | --- |
| – | – | – | – | COC(=O)[C@]12CCC(C)(C)C[C@H]1[C@H]1C(=O)C=C3[C@@]4(C)C=C(C#N)C(=O)C(C)(C)[C@@H]4CC[C@@]3(C)[C@]1(C)CC2 [FORM B PRODUCED BY ISOLATION FROM ETHYL ACETATE AND ETHANOL ] | Form B | 0.58 | Form B | 0.39% | ~50% Form A + | 0.02 | 100% Form A | 0.37 | form after stress testing (summary of Table 15) ([1]; 28 days of storage, Form A seen at 60° C. and above): formation of Form A |
| – | – | – | – | COC(=O)[C@]12CCC(C)(C)C[C@H]1[C@H]1C(=O)C=C3[C@@]4(C)C=C(C#N)C(=O)C(C)(C)[C@@H]4CC[C@@]3(C)[C@]1(C)CC2 [FORM B PRODUCED VIA EXAMPLE 11 PROCEDURE] | Form B | 0.77 | Form B | 0.00^b | Form B | 0.04 | Form B | 1.1 | XRPD RESULT after stress ([1]; 25° C./75% RH, 14 d, micronized): Form B; XRPD RESULT after stress ([1]; 80° C./P2O5, 14 d, micronized): Form B |
| not hygroscopic | 40.4 | 37.4 | 21 to 60.4 | COC(=O)C12CCC(C)(C)CC1C1C(=O)C=C3C4(C)C=C(C#N)C(=O)C(C)(C)C4CCC3(C)C1(C)CC2 (stereo not shown) [Form A, methyl 2-cyano-3,12-dioxoleana-1,9(11)-dien-28-oate] | – | – | – | – | – | – | – | – | MB / DVS weight change ([2]; 5% to 95% RH sorption/desorption): Negligible weight change throughout experiment; Post MB XRPD ([2]; material after DVS experiment): Form A; weight loss under stress ([1]; 25° C./60% RH): 3 days: 1.5% loss; XRPD RESULT after stress ([1]; 25° C./60% RH, 7 days): remained Form A; weight loss under stress ([1]; 40° C./75% RH): 3 days: 1.4% loss; XRPD RESULT after stress ([1]; 40° C./75% RH, 7 days): remained Form A; XRPD RESULT after stress ([1]; 20 min grind, dry (ball mill)): remained Form A; XRPD RESULT after stress ([1]; 20 min wet grind, water (ball mill)): remained Form A |
| not hygroscopic | 177.2 | 175.0 | 158 to 228 | COC(=O)C12CCC(C)(C)CC1C1C(=O)C=C3C4(C)C=C(C#N)C(=O)C(C)(C)C4CCC3(C)C1(C)CC2 (stereo not shown) [Form B, methyl 2-cyano-3,12-dioxoleana-1,9(11)-dien-28-oate] | – | – | – | – | – | – | – | – | % Form B over Form A (AUC), Mean [3]: 439%; % Form B over Form A (AUC), Median [3]: 523%; % Form B over Form A (AUC), Range (min-max) [3]: 262-723%; median exposure greater than the equivalent dose of Form A [3]: approximately 520%; XRPD RESULT after stress ([1]; 22° C./97% RH, 7 days): remained Form B; XRPD RESULT after stress ([1]; 40° C./75% RH, 8 days): remained Form B; XRPD RESULT after stress ([1]; 80° C./0% RH, ~24 hours): remained Form B; XRPD RESULT after stress ([1]; 195° C., 5 minutes, ambient RH (74% RH)): remained Form B; XRPD RESULT after stress ([1]; 200° C., 60 minutes, ambient RH (74% RH), min = minor): Form A plus minor Form B; form after cryogrinding ([1]; cryogrinding 1 hour): stable and does not change Form; bioavailability, comparison of formulations [4]: significantly better bioavailability |
